Columns and labels:
wild type PKR [1] = molecular target: T1, wild type PKR (Homo sapiens, UniProt P30613); test: PKR (wild type) enzyme AC50 assay, LDH/NADH-coupled, absorbance at 340 nm; format: biochemical; conditions: for AC50: Table 2, enzyme assay, read-out: PKR WT AC50; for EC50: Table 4, AC50, enzyme assay, read-out: PKR WT
Description: (§1) Example 11. PKR Mutant Assay
(§2) PKR or PKR mutant enzyme solution was diluted into a reaction mix, which contains 1× buffer (100 mM KCl, 50 mM Tris pH 7.5, 5 mM MgCl2) as well as PEP (conc depends on enzyme), 180 μM NADH, 0.5 units LDH, 1 mM DTT, 0.03% BSA; final assay concentrations after 1.11 fold dilution are indicated.
(§3) 2 μL of test compound was added into wells first, and then 180 μL reaction mix was added.
(§4) Reactions mixture with test compound was assembled except for ADP, and plates were stored for 60 minutes at room temperature.
(§5) 20 uL ADP was added to start reaction at room temperature and reaction progress was measured as changes in absorbance at 340 nm wavelength at room temperature.
(§6) Test Compound Preparation:
(§7) Test compound stock was made at 100× concentration in 100% DMSO (10 mM)
(§8) 1 to 3 dilutions were made for 11 points (i.e. 50 μl of first concentration added to 100 μl 100% DMSO to yield 3.33 mM, 50 μl of this added to 100 μl DMSO to yield 1.11 mM, and so forth) • 1 to 100 dilution into assay (2 μl in 200 μl) yielded starting concentration of 100 μM, decreasing 3 fold for 11 points.
(§9) Assay Buffer: 100 mM KCl, 50 mM Tris 7.5, 5 mM MgCl2, 1 mM DTT, 0.03% BSA
(§10) Reaction Mixture: PKR mutant enzyme: 40-400 ng/well; ADP: 0.2-1.65 mM; PEP: 0.1-0.5 mM; NADH: 180 μM; LDH: 0.5 units (Sigma #59023); DTT: 1 mM; BSA: 0.03%.

PKR K410E = PKR K410E (Homo sapiens, UniProt P30613, K410E); test: PKR mutant assay (K410E), AC50, LDH/NADH-coupled, absorbance at 340 nm; format: biochemical; conditions: for AC50: Table 2, enzyme assay; for EC50: Table 4, AC50, enzyme assay
Description: as §1, §2, §3, §4, §5, §6, §7, §8, §9, §10

PKR R510Q = PKR R510Q (Homo sapiens, UniProt P30613, R510Q); test: PKR mutant assay (R510Q), AC50, LDH/NADH-coupled, absorbance at 340 nm; format: biochemical; conditions: for AC50: read-out: PK R510Q AC50; for EC50: Table 4, AC50, enzyme assay, read-out: PK R510Q
Description: as §1, §2, §3, §4, §5, §6, §7, §8, §9, §10

wild type PKR [2] = molecular target: T1, wild type PKR; test: Cell based ATP assay in purified red blood cells (Cell-Titer-Glo); set-up: endogenous in cells; host or cells: purified red blood cells from healthy volunteers; conditions: overnight at 37° C., ATP levels; for EC50: Table 4, AC50, RBCs
Description: Example 16. Red Blood Cell (RBC) Purification
Fresh blood drawn from healthy volunteers into K2EDTA tubes was collected. Whole blood was pelleted by spinning at 500 g for 10 minutes. Cut transfusion bag port off of Purecell leukocyte reduction neofilter (Fisher NC0267633) one (1) inch above filter. Attach a 10 ml syringe barrel to the remaining cut tubing attached to neofilter. The plasma layer was removed from the pellet of the whole blood and the pellet was resuspended in 2× volume of phosphate buffered saline (PBS). Transfer 9 ml re-suspended blood cell pellet to prepared 10 ml syringe that is attached to the neofilter. Allow whole blood to gravity flow through filter until all fluid runs through upper tubing into filter disc. Add plunger to the syringe, remove syringe from clamp and invert the filter, then plunge air through the syringe filter system. Using a new 5 ml syringe, remove filtered RBCs from the bag by the syringe port and transfer purified RBCs to a 5 ml snap cap tube that has been incubated on ice. Spin 5 ml snap cap tube at 500 g for 10 minutes at 15 C, aspirate supernatant and resuspend in AGAM (1×PBS, 1% glucose, 170 mg/L adenine, 5.25 g/L mannitol) at a density of 4×10^9 cells/mL.
Example 17. Cell Based ATP Assay
For cell based ATP assays, the compound as described herein was prepared in 100% DMSO as a 10 mM stock. Serial dilutions (1:4) were performed in 96-well V-bottom storage plate and then added 1:100 to 96-well V-bottom plates containing AGAM. RBCs were diluted in AGAM media to a density of 1×10^7 cells/mL before added 90 μL/well to black clear bottom assay plates (final compound concentration at 0.1% DMSO concentration). Assay plates were sealed using aluminum foil seals and incubated overnight at 37° C. in a humidified chamber. ATP levels were read out using Cell-Titer-Glo (Promega).

PKR R510Q, sequence (P30613 whole entry R510Q): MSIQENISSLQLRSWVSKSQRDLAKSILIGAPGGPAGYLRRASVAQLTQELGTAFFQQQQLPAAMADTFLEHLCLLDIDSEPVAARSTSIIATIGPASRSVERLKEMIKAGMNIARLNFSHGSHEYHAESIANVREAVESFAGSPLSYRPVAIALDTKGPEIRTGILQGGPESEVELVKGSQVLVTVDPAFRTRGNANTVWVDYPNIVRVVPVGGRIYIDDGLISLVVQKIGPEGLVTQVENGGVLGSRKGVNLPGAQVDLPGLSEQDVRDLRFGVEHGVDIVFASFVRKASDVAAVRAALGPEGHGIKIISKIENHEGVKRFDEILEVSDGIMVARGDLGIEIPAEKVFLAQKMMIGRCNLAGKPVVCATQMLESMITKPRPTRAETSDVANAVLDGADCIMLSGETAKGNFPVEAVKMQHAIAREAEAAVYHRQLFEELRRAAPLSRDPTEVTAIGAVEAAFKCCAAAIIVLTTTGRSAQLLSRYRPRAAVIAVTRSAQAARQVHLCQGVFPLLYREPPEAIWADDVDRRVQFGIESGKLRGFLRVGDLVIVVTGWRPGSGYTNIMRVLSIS
T1 sequence (P30613 whole entry): as the sequence (P30613 whole entry R510Q) above, with Q510R counted along it
PKR K410E, sequence (P30613 whole entry K410E): as the sequence (P30613 whole entry R510Q) above, with K410E, Q510R counted along it

AC50 (wild type PKR [1]) [nM] | AC50 (PKR K410E) [nM] | AC50 (PKR R510Q; Table 2, enzyme assay) [nM] | AC50 (wild type PKR [2]; Table 2, RBCs) [nM] | EC50 (wild type PKR [1]) [nM] | EC50 (PKR K410E) [nM] | EC50 (PKR R510Q) [nM] | EC50 (wild type PKR [2]) [nM] | PK R510Q AC50 (PKR R510Q; Table 2, enzyme assay) | Cell based ATP assay AC50 (wild type PKR [2]; Table 2, RBCs) | SMILES
< 300 | < 300 | < 300 | ≤ 1000 | – | – | – | – | – | – | COc1cccc(Cn2ncc3c4sc(Sc5ccccc5)nc4n(C)c3c2=O)c1 [Compound 34]
– | – | – | – | < 300 | < 300 | < 300 | ≤ 1000 | – | – | Cn1c2nc(Cc3cc[nH]n3)sc2c2cnn(Cc3cccc4sc(N)nc34)c(=O)c21 [Compound 235]
> 800 | > 800 | – | – | – | – | – | – | No Fit | No Fit | Cc1nc2c(s1)c1cnn(CO)c(=O)c1n2C [Compound 21]
– | – | – | – | < 300 | < 300 | < 300 | ≤ 1000 | – | – | Cn1c2nc(Cc3cc[nH]n3)sc2c2cnn(Cc3cccc(O)c3)c(=O)c21 [Compound 369]
301 to 800 | > 800 | 301 to 800 | > 1000 | – | – | – | – | – | – | Cn1c2nc(Cc3ccon3)sc2c2cnn(Cc3cccc4[nH]ncc34)c(=O)c21 [Compound 166]
– | – | – | – | > 800 | > 800 | 301 to 800 | > 1000 | – | – | O=c1c2c(cnn1Cc1ccccc1)c1sc(Cc3cc[nH]n3)nc1n2C1CC1 [Compound 408]
> 800 | > 800 | > 800 | > 1000 | – | – | – | – | – | – | Cc1nc2c(s1)c1cnn(Cc3ccc4nn[nH]c4c3)c(=O)c1n2C [Compound 20]
< 300 | < 300 | < 300 | ≤ 1000 | – | – | – | – | – | – | Cc1nc2c(s1)c1cnn(Cc3cccc(C(C)N)c3)c(=O)c1n2C (stereo not drawn) [Compound 57]
– | – | – | – | < 300 | < 300 | < 300 | ≤ 1000 | – | – | Cn1c2nc(Cc3cccc4cn[nH]c34)sc2c2cnn(Cc3cc[nH]n3)c(=O)c21 [Compound 241]
– | – | – | – | < 300 | < 300 | < 300 | ≤ 1000 | – | – | Cn1ncc2nc(Cn3ncc4c5sc(Cc6cc[nH]n6)nc5n(C)c4c3=O)ccc21 [Compound 288]
– | – | – | – | < 300 | < 300 | < 300 | ≤ 1000 | – | – | Cn1c2nc(Cc3cc[nH]n3)sc2c2cnn(Cc3ccc4cc(Cl)[nH]c4n3)c(=O)c21 [Compound 388]
– | – | – | – | < 300 | < 300 | < 300 | ≤ 1000 | – | – | Cn1c2nc(Cc3n[nH]cc3Cl)sc2c2cnn(Cc3cccc4[nH]ncc34)c(=O)c21 [Compound 244]
< 300 | 301 to 800 | 301 to 800 | ≤ 1000 | – | – | – | – | – | – | CC(O)c1cccc(Cn2ncc3c4sc([S+](C)[O-])nc4n(C)c3c2=O)c1 (stereo not drawn) [Compound 88]
– | – | – | – | < 300 | < 300 | < 300 | ≤ 1000 | – | – | Cn1c2nc(Cc3cccc4[nH]nnc34)sc2c2cnn(Cc3cccc4[nH]ncc34)c(=O)c21 [Compound 225]
> 800 | 301 to 800 | 301 to 800 | > 1000 | – | – | – | – | – | – | COc1ccccc1Cn1ncc2c3sc(C)nc3n(C)c2c1=O [Compound 8]
< 300 | < 300 | 301 to 800 | > 1000 | – | – | – | – | – | – | Cn1c2nc(C(O)c3ccccc3)sc2c2cnn(Cc3cccc4[nH]ncc34)c(=O)c21 (stereo not drawn) [Compound 117]
> 800 | > 800 | 301 to 800 | > 1000 | – | – | – | – | – | – | Cc1nc2c(s1)c1cnn(Cc3ccc4cn[nH]c4c3)c(=O)c1n2C [Compound 33]
< 300 | < 300 | < 300 | ≤ 1000 | – | – | – | – | – | – | Cc1nc2c(s1)c1cnn(Cc3cccc(CO)c3)c(=O)c1n2C [Compound 45]
< 300 | < 300 | < 300 | ≤ 1000 | – | – | – | – | – | – | Cn1c2nc(Cc3ccc(O)cc3)sc2c2cnn(Cc3cccc4[nH]ncc34)c(=O)c21 [Compound 77]
301 to 800 | < 300 | < 300 | > 1000 | – | – | – | – | – | – | Cn1c2nc(CC(N)=O)sc2c2cnn(Cc3cccc4[nH]ncc34)c(=O)c21 [Compound 137]
> 800 | > 800 | > 800 | > 1000 | – | – | – | – | – | – | Cn1c2nc([S+](C)[O-])sc2c2cnn(Cc3ccnc(N)n3)c(=O)c21 (stereo not drawn) [Compound 97]

From patent US11957680B2, “Pyruvate kinase activators for use in treating blood disorders” (Agios Pharmaceuticals, Inc., priority 2017, dated 2024)
